From ChEMBL document CHEMBL5154835, “Design, synthesis and biological evaluation of sulfonamides inhibitors of XPO1 displaying activity against multiple myeloma cells” (Eur J Med Chem, 2022)

Experiments:
Format in all cases: functional, cell-based
[1] = system: MM1.S; assay: Antiproliferative activity against human MM1.S cells assessed as inhibition of cell growth incubated for 4 hrs by CCK-8 assay
[2] = Antiproliferative activity against human MINO cells assessed as inhibition of cell growth incubated for 4 hrs by CCK-8 assay
[3] = Antiproliferative activity against human VAL cells assessed as inhibition of cell growth incubated for 4 hrs by CCK-8 assay
[4] = Antiproliferative activity against human Rael cells assessed as inhibition of cell growth incubated for 4 hrs by CCK-8 assay
[5] = system: NAMALVA; assay: Antiproliferative activity against human NAMALVA cells assessed as inhibition of cell growth incubated for 4 hrs by CCK-8 assay
[6] = Antiproliferative activity against human Mutu-1 cells assessed as inhibition of cell growth incubated for 4 hrs by CCK-8 assay; conditions: Mutu-1, 4 h
[7] = system: H9; assay: Antiproliferative activity against human H9 cells assessed as inhibition of cell growth incubated for 4 hrs by CCK-8 assay; conditions: H9, 4 h
[8] = Antiproliferative activity against human JB-6 cells assessed as inhibition of cell growth incubated for 4 hrs by CCK-8 assay; conditions: JB6, 4 h
[9] = system: YT; assay: Antiproliferative activity against human YT cells assessed as inhibition of cell growth incubated for 4 hrs by CCK-8 assay

Row | Compound | IC50 [1] | also measured
1 | CN(c1ccc(/C(=C\n2cnc(-c3cc(C(F)(F)F)cc(C(F)(F)F)c3)n2)C(N)=O)cc1)S(C)(=O)=O | 0.446 µM | –
2 | NC(=O)/C(=C/n1cnc(-c2cc(C(F)(F)F)cc(C(F)(F)F)c2)n1)c1ccc(F)nc1F | 0.667 µM | –
3 | CS(=O)(=O)Nc1cc(C#N)cc(/C(=C\n2cnc(-c3cc(C(F)(F)F)cc(C(F)(F)F)c3)n2)C(N)=O)c1 | 0.833 µM | –
4 | CCNC(=O)/C(=C/n1cnc(-c2cc(C(F)(F)F)cc(C(F)(F)F)c2)n1)c1ccc(NS(C)(=O)=O)cc1 | 2.16 µM | –
5 | NC(=O)/C(=C/n1cnc(-c2cc(C(F)(F)F)cc(C(F)(F)F)c2)n1)c1cc(F)c(F)c(F)c1 | 2.43 µM | –
6 | CN(C)C(=O)/C(=C/n1cnc(-c2cc(C(F)(F)F)cc(C(F)(F)F)c2)n1)c1ccc(NS(C)(=O)=O)cc1 | 8.96 µM | –
7 | CCOc1ccc(/C(=C\n2cnc(-c3cc(C(F)(F)F)cc(C(F)(F)F)c3)n2)C(N)=O)c(F)c1F | > 10 µM | –

Further lines, with some results ahead:

Row | IC50 [1] | Compound | also measured
8 | 2.07 µM | Cc1cn(/C=C(/C(N)=O)c2cncnc2)nc1-c1cc(C(F)(F)F)cc(C(F)(F)F)c1 | –
9 | 0.118 µM | N#Cc1cncc(/C(=C\n2cnc(-c3cc(C(F)(F)F)cc(C(F)(F)F)c3)n2)C(N)=O)c1 | –
10 | 1.19 µM | N#Cc1cn(/C=C(/C(N)=O)c2cncnc2)nc1-c1cc(C(F)(F)F)cc(C(F)(F)F)c1 | –
11 | 0.713 µM | NC(=O)/C(=C/n1cc(F)c(-c2cc(C(F)(F)F)cc(C(F)(F)F)c2)n1)c1cncnc1 | –
12 | 5.21 µM | NC(=O)/C(=C/n1cnc(-c2cc(C(F)(F)F)cc(C(F)(F)F)c2)n1)c1cccc(F)c1F | –
13 | 0.064 µM | NC(=O)/C(=C/n1cnc(-c2cc(C(F)(F)F)cc(C(F)(F)F)c2)n1)c1cncnc1 [ELTANEXOR] | IC50 [2]: 0.13 µM; IC50 [3]: 0.287 µM; IC50 [4]: 0.261 µM; IC50 [5]: 0.0938 µM; IC50 [6]: 0.283 µM; IC50 [7]: 0.139 µM; IC50 [8]: 0.334 µM; IC50 [9]: 0.103 µM
